Common to all, as to assay type: in vivo
The subject of assay [1] is barnyardgrass (Echinochloa crus-galli). Nature of the assay: Test A preemergence. As to conditions: Echinochloa crus-galli, pre-emergence, 240 h, preemergence, read-out: Barnyardgrass plant response rating. In a few lines: (§1)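 Seeded soil received test chemicals as a preemergence directed spray, and seedlings at one to two leaves, 2–10 cm tall, received them postemergence, in a non-phytotoxic, surfactant-containing solvent mixture. Pots were held in a greenhouse for approximately 10 d, then rated for injury from 0, no effect, to 100, complete control.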

The subject of assay [2] is ragweed (common ragweed, Ambrosia elatior). Nature of the assay: Test A preemergence. The settings on record: Ambrosia artemisiifolia, pre-emergence, 240 h, 500 g ai/ha, preemergence; visual injury rating about 10 d after treatment, 0 to 100 scale (0 no effect, 100 complete control); read-out: Ragweed plant response rating. In a few lines: as §1
Assay [3] has as its system ryegrass, Italian (Italian ryegrass, Lolium multiflorum). Nature of the assay: Test A preemergence. As to conditions: Lolium multiflorum, pre-emergence, 240 h, 500 g ai/ha, preemergence; visual injury rating about 10 d after treatment, 0 to 100 scale (0 no effect, 100 complete control); read-out: Ryegrass, Italian plant response rating. The method in brief:
as §1

The test system of another assay is Kochia (Kochia scoparia). In words: Test A preemergence. As to conditions: Bassia scoparia, pre-emergence, 240 h, preemergence, read-out: Kochia plant response rating. The method in brief:
as §1

For assay [4], the system named is giant foxtail (Setaria faberii). Nature of the assay: Test A preemergence. The settings on record: Setaria faberi, pre-emergence, 240 h, preemergence, read-out: Foxtail, Giant plant response rating. In a few lines:
as §1

Assay [5] concerns pigweed (Amaranthus retroflexus). In words: Test A preemergence. As to conditions: Amaranthus retroflexus, pre-emergence, 240 h, preemergence, read-out: Pigweed plant response rating.
Assay [6] relates to wheat (Triticum aestivum). Nature of the assay: Test A postemergence. As to conditions: Triticum aestivum, post-emergence, 240 h, 125 g ai/ha, Postemergence; visual injury after approximately 10 d; 0 to 100 scale where 0 is no effect and 100 is complete control; read-out: Plant response rating, Wheat. The method in brief:
as §1

For assay [7], the system named is barnyardgrass (Echinochloa crus-galli). Nature of the assay: Test A postemergence. As to conditions: Echinochloa crus-galli, post-emergence, 240 h, 125 g ai/ha, Postemergence; visual injury after approximately 10 d; 0 to 100 scale where 0 is no effect and 100 is complete control; read-out: Plant response rating, Barnyardgrass. The method in brief:
as §1

For assay [8], the system named is ragweed (common ragweed, Ambrosia elatior). Nature of the assay: Test A postemergence. As to conditions: Ambrosia artemisiifolia, post-emergence, 240 h, 125 g ai/ha, Postemergence; visual injury after approximately 10 d; 0 to 100 scale where 0 is no effect and 100 is complete control; read-out: Plant response rating, Ragweed. The method in brief:
as §1

Assay [9] relates to ryegrass, Italian (Italian ryegrass, Lolium multiflorum). Nature of the assay: Test A postemergence. The settings on record: Lolium multiflorum, post-emergence, 240 h, 125 g ai/ha, Postemergence; visual injury after approximately 10 d; 0 to 100 scale where 0 is no effect and 100 is complete control; read-out: Plant response rating, Ryegrass, Italian. The method in brief: as §1

The subject of assay [10] is blackgrass (Alopecurus myosuroides). Nature of the assay: Test A postemergence. The settings on record: Alopecurus myosuroides, post-emergence, 240 h, 125 g ai/ha, Postemergence; visual injury after approximately 10 d; 0 to 100 scale where 0 is no effect and 100 is complete control; read-out: Plant response rating, Blackgrass. In a few lines: as §1
A further assay has as its system corn (Zea mays). In words: Test A postemergence. The settings on record: Zea mays, post-emergence, 240 h, 125 g ai/ha, Postemergence; visual injury after approximately 10 d; 0 to 100 scale where 0 is no effect and 100 is complete control. In a few lines:
as §1

For assay [11], the system named is giant foxtail (Setaria faberii). Nature of the assay: Test A postemergence. The settings on record: Setaria faberi, post-emergence, 240 h, 125 g ai/ha, Postemergence; visual injury after approximately 10 d; 0 to 100 scale where 0 is no effect and 100 is complete control; read-out: Plant response rating, Foxtail, Giant. The method in brief:
as §1

The subject of assay [12] is pigweed (Amaranthus retroflexus). Nature of the assay: Test A postemergence. As to conditions: Amaranthus retroflexus, post-emergence, 240 h, 125 g ai/ha, Postemergence; visual injury after approximately 10 d; 0 to 100 scale where 0 is no effect and 100 is complete control; read-out: Plant response rating, Pigweed. The method in brief: as §1
Assay [13] relates to Galium (catchweed bedstraw, Galium aparine). In words: Test A postemergence. As to conditions: Galium, post-emergence, 240 h, 125 g ai/ha, Postemergence; visual injury after approximately 10 d; 0 to 100 scale where 0 is no effect and 100 is complete control; read-out: Plant response rating, Galium. In a few lines: as §1
Where [14] appears, read: 125 g ai/ha, 0 to 100 scale where 0 is no effect and 100 is complete control.
[15] abbreviates: 500 g ai/ha, visual injury rating about 10 d after treatment, 0 to 100 scale (0 no effect, 100 complete control).

Take `Cc1cccc(NC(=O)[C@H]2C(=O)N(C)C[C@@H]2c2ccc(C(F)(F)F)cc2)c1F` [Compound 939]: the pest or weed control at 125 g/ha in assay [1] (setting [14]) is 90%; in the assay on Kochia (Kochia scoparia) (setting [14]) it was 30%; in assay [4] (setting [14]) it was 90%; in [5] (setting [14]) it was 0%; in assay [7] it was 80%; in assay [8] it was 0%. The pest or weed control at 125 g/ha in [9] was found to be 0%; in [10], 0%; in assay [11], 90%; in assay [12] it was 0%; in assay [13] it was 20%. The pest or weed control at 500 g/ha is 90% in assay [1] (setting [15]); 50% in assay [2]; 20% in [3]; 60% in the assay on Kochia (Kochia scoparia) (setting [15]); 90% in [4] (setting [15]); 0% in assay [5] (setting [15]). For the same compound, in assay [6], the plant injury at 125 g/ha stood at 20%. Further, the Corn plant response rating (crop injury, 0 = no effect, 100 = complete kill) at 125 g/ha with corn (Zea mays) turned out to be 0%.
